Data: ChEMBL document CHEMBL4311957, “Recent advances in natural antifungal flavonoids and their derivatives” (Bioorg Med Chem Lett, 2019)
Values after ≈ are worked out from the molar mass of the structure shown. Blank lines part the entries; values can stand above or below the compound they belong to.

Experiments:
Cryptococcus gattii = assay: Antifungal activity against Cryptococcus gattii after 72 hrs; type: functional, Cryptococcus gattii VGI
Candida albicans [1] = assay: Antifungal activity against Candida albicans ATCC 10231 after 48 hrs by CLSI-based broth microdilution method; type: functional; details: ATCC 10231, 48 h
[2] = test system: Trichophyton mentagrophytes; assay: Antifungal activity against Trichophyton mentagrophytes after 5 days; type: functional; details: 120 h
Candida tropicalis [3] = assay: Antifungal activity against Candida tropicalis CCC 131-2000 after 48 hrs by CLSI-based broth microdilution method; type: functional; details: CCC 131-2000, 48 h
Nakaseomyces glabratus [4] = assay: Antifungal activity against Candida glabrata ATCC 90030; type: functional
Cryptococcus neoformans [5] = assay: Antifungal activity against Cryptococcus neoformans ATCC 32264 after 48 hrs by CLSI-based broth microdilution method; type: functional; details: ATCC 32264, 48 h
Trichophyton rubrum [6] = assay: Antifungal activity against Trichophyton rubrum after 5 days; type: functional; details: 120 h
Saccharomyces cerevisiae = assay: Antifungal activity against Saccharomyces cerevisiae ATCC 9763 after 48 hrs by CLSI-based broth microdilution method; type: functional; details: ATCC 9763, 48 h
Nannizzia gypsea = assay: Antifungal activity against Microsporum gypseum after 5 days; type: functional; details: 120 h
Cryptococcus neoformans [7] = assay: Antifungal activity against Cryptococcus neoformans after 72 hrs; type: functional
Trichophyton tonsurans = assay: Antifungal activity against Trichophyton tonsurans after 5 days; type: functional; details: 120 h
Cryptococcus neoformans [8] = assay: Antifungal activity against Cryptococcus neoformans; type: functional
Aspergillus fumigatus [9] = assay: Antifungal activity against Aspergillus fumigatus; type: functional
Cryptococcus neoformans [10] = assay: Antifungal activity against Cryptococcus neoformans after 48 hrs by broth micro dilution method; type: functional
Candida parapsilosis [11] = assay: Antifungal activity against Candida parapsilosis after 48 hrs by broth micro dilution method; type: functional; details: Lodderomyces parapsilosis
Candida albicans [12] = assay: Antifungal activity against Candida albicans after 48 hrs by broth micro dilution method; type: functional
Candida albicans [13] = assay: Antifungal activity against Candida albicans; type: functional, organism-based
Candida parapsilosis [14] = assay: Antifungal activity against Candida parapsilosis ATCC 22019 after 18 hrs by two-fold microdilution method; type: functional; details: Lodderomyces parapsilosis, ATCC 22019, 18 h
Candida albicans [15] = assay: Antifungal activity against Candida albicans ATCC 90028 after 18 hrs by two-fold microdilution method; type: functional; details: ATCC 90028, 18 h
Nakaseomyces glabratus [16] = assay: Antifungal activity against Candida glabrata ATCC 90030 after 18 hrs by two-fold microdilution method; type: functional; details: ATCC 90030, 18 h
Trichophyton rubrum [17] = assay: Antifungal activity against Trichophyton rubrum; type: functional
Candida albicans [18] = assay: Antifungal activity against Candida albicans 501 by microdilution method; type: functional
Nakaseomyces glabratus [19] = assay: Antifungal activity against Candida glabrata 493 by microdilution method; type: functional
Candida albicans [20] = assay: Antifungal activity against Candida albicans ATCC 10231 by microdilution method; type: functional
Pichia kudriavzevii = assay: Antifungal activity against Candida krusei 168 by microdilution method; type: functional
Nakaseomyces glabratus [21] = assay: Antifungal activity against Candida glabrata 507 by microdilution method; type: functional
Candida albicans [22] = assay: Antifungal activity against Candida albicans 53 by microdilution method; type: functional
Candida tropicalis [23] = assay: Antifungal activity against Candida tropicalis 166 by microdilution method; type: functional
Nakaseomyces glabratus [24] = assay: Antifungal activity against Candida glabrata 587 by microdilution method; type: functional
Nakaseomyces glabratus [25] = assay: Antifungal activity against Candida glabrata 531 by microdilution method; type: functional
Nakaseomyces glabratus [26] = assay: Antifungal activity against Candida glabrata 510 by microdilution method; type: functional
Candida parapsilosis [27] = assay: Antifungal activity against Candida parapsilosis 96 by microdilution method; type: functional; details: Lodderomyces parapsilosis
Nakaseomyces glabratus [28] = assay: Antifungal activity against Candida glabrata 482 by microdilution method; type: functional
Candida albicans [29] = assay: Antifungal activity against Candida albicans 498 by microdilution method; type: functional
Candida parapsilosis [30] = assay: Antifungal activity against Candida parapsilosis; type: functional; details: Lodderomyces parapsilosis
Aspergillus fumigatus [31] = assay: Fungicidal activity against Aspergillus fumigatus ATTC 26934 after 48 hrs; type: functional; details: ATTC 26934, 48 h
Candida tropicalis [32] = assay: Antifungal activity against FLC-resistant Candida tropicalis in presence of FLC; type: functional

Structure (SMILES): O=c1c(O[C@@H]2O[C@H](CO)[C@@H](O)[C@H](O)[C@H]2O)c(-c2cc(O)c(O)c(O)c2)oc2cc(O)cc(O)c12
MIC (Cryptococcus gattii): 128 µg/mL (≈ 266 µM)
MIC (Candida albicans [1]): 31.2 µg/mL (≈ 64.9 µM)
MIC [2]: 4 to 128 µg/mL (≈ 8.33 to 266 µM)
MIC (Candida tropicalis [3]): 31.2 µg/mL (≈ 64.9 µM)
MIC (Nakaseomyces glabratus [4]): 8.53 µg/mL (≈ 17.8 µM)
MIC (Cryptococcus neoformans [5]): 31.2 µg/mL (≈ 64.9 µM)
MIC (Trichophyton rubrum [6]): 4 to 128 µg/mL (≈ 8.33 to 266 µM)
MIC (Saccharomyces cerevisiae): 31.2 µg/mL (≈ 64.9 µM)
MIC (Nannizzia gypsea): 4 to 128 µg/mL (≈ 8.33 to 266 µM)
MIC (Cryptococcus neoformans [7]): 8 to 128 µg/mL (≈ 16.7 to 266 µM)
MIC (Trichophyton tonsurans): 4 to 128 µg/mL (≈ 8.33 to 266 µM)

Structure (SMILES): O=C(O)[C@H]1O[C@@H](Oc2cc(O)c3c(=O)cc(-c4ccc(O)cc4)oc3c2)[C@H](O)[C@@H](O)[C@@H]1O
MIC (Cryptococcus neoformans [10]): 128 µg/mL (≈ 287 µM)
MIC (Candida parapsilosis [11]): 64 µg/mL (≈ 143 µM)
MIC (Candida albicans [12]): > 256 µg/mL

Structure (SMILES): C=CC(C)(C)c1cc([C@@H]2CC(=O)c3c(O)cc(O)c(CC=C(C)C)c3O2)c(O)cc1O
IC50 (Candida albicans [13]): 121 µM
MIC (Candida albicans [13]): 121 µg/mL (≈ 285 µM)

Structure (SMILES): COc1cc(O)cc2oc(-c3cc(O)c(O)c(O)c3)c(O)c(=O)c12
MIC (Cryptococcus gattii): 128 µg/mL (≈ 385 µM)
MIC (Candida albicans [1]): 31.2 µg/mL (≈ 93.9 µM)
MIC [2]: 4 to 128 µg/mL (≈ 12 to 385 µM)
MIC (Candida tropicalis [3]): 31.2 µg/mL (≈ 93.9 µM)
MIC (Nakaseomyces glabratus [4]): 6.79 to 15.4 µg/mL (≈ 20.4 to 46.3 µM)
MIC (Cryptococcus neoformans [5]): 31.2 µg/mL (≈ 93.9 µM)
MIC (Trichophyton rubrum [6]): 4 to 128 µg/mL (≈ 12 to 385 µM)
MIC (Saccharomyces cerevisiae): 31.2 µg/mL (≈ 93.9 µM)
MIC (Nannizzia gypsea): 4 to 128 µg/mL (≈ 12 to 385 µM)
MIC (Cryptococcus neoformans [7]): 8 to 128 µg/mL (≈ 24.1 to 385 µM)
MIC (Trichophyton tonsurans): 4 to 128 µg/mL (≈ 12 to 385 µM)

Structure (SMILES): C[C@@H]1O[C@@H](Oc2c(-c3cc(O)c(O)c(O)c3)oc3cc(O)cc(O)c3c2=O)[C@H](O)[C@H](O)[C@H]1O
MIC (Candida albicans [18]): > 83 µg/mL
MIC (Nakaseomyces glabratus [19]): 3.9 to 7.8 µg/mL (≈ 8.4 to 16.8 µM)
MIC (Candida albicans [20]): > 83 µg/mL
MIC (Pichia kudriavzevii): > 83 µg/mL
MIC (Nakaseomyces glabratus [21]): 3.9 to 7.8 µg/mL (≈ 8.4 to 16.8 µM)
MIC (Candida albicans [22]): > 83 µg/mL
MIC (Candida tropicalis [23]): > 83 µg/mL
MIC (Nakaseomyces glabratus [24]): 3.9 to 7.8 µg/mL (≈ 8.4 to 16.8 µM)
MIC (Nakaseomyces glabratus [25]): 3.9 to 7.8 µg/mL (≈ 8.4 to 16.8 µM)
MIC (Nakaseomyces glabratus [26]): 3.9 to 7.8 µg/mL (≈ 8.4 to 16.8 µM)
MIC (Candida parapsilosis [27]): > 83 µg/mL
MIC (Nakaseomyces glabratus [28]): 3.9 to 7.8 µg/mL (≈ 8.4 to 16.8 µM)
MIC (Candida albicans [29]): > 83 µg/mL

Structure (SMILES): O=c1c(O[C@@H]2O[C@@H](CO)[C@H](O)[C@H]2O)c(-c2ccc(O)c(O)c2)oc2cc(O)cc(O)c12 [AVICULARIN]
MIC (Candida albicans [13]): 2 to 32 µg/mL (≈ 4.6 to 73.7 µM)
MIC (Candida parapsilosis [30]): 8 to 32 µg/mL (≈ 18.4 to 73.7 µM)
MIC (Aspergillus fumigatus [31]): 2 to 16 µg/mL (≈ 4.6 to 36.8 µM)

Structure (SMILES): Oc1cc(O)c2c(c1)O[C@H](c1ccc(O)c(O)c1)[C@@H](O)C2 [CIANIDANOL]
MIC (Candida tropicalis [32]): ≤ 16 µg/mL

Further lines, results first:

MIC (Cryptococcus neoformans [8]): 4 to 8 µg/mL (≈ 11.9 to 23.8 µM)
MIC (Aspergillus fumigatus [9]): 16 µg/mL (≈ 47.6 µM)
Structure (SMILES): Cc1c(O)c2c(c(C(=O)/C=C/c3ccccc3)c1O)OC(C)(C)C=C2

MIC (Candida parapsilosis [14]): 15.6 µg/mL (≈ 46.2 µM)
MIC (Candida albicans [15]): 15.6 µg/mL (≈ 46.2 µM)
MIC (Nakaseomyces glabratus [16]): 15.6 µg/mL (≈ 46.2 µM)
Structure (SMILES): CC(C)=CCc1c(O)cc(O)c2c(=O)cc(-c3ccc(O)cc3)oc12

MIC50 (Cryptococcus neoformans [8]): 4 to 8 µg/mL (≈ 3.75 to 7.5 µM)
MIC50 (Aspergillus fumigatus [9]): 16 µg/mL (≈ 15 µM)
Structure (SMILES): CC(=O)c1c(O)c(C)c(O)c(Cc2c(O)c(C(=O)/C=C/c3ccc(O)cc3)c3c(c2O)[C@@H]2Oc4c(Cc5c(O)c(O)c(O)c(C(C)=O)c5O)c(O)c(C(=O)/C=C/c5ccc(O)cc5)c5c4[C@H](CC(C)(C)O5)[C@H]2C(C)(C)O3)c1O

MIC50 (Candida albicans [13]): 15 µg/mL (≈ 44.1 µM)
MIC50 (Cryptococcus neoformans [8]): 7 µg/mL (≈ 20.6 µM)
Structure (SMILES): C=C(C)CC(O)c1c(O)ccc(C(=O)/C=C/c2ccc(O)cc2)c1O (configuration not stated)

MIC (Trichophyton rubrum [17]): 0.5 µg/mL (≈ 1.86 µM)
Structure (SMILES): Nc1ccccc1C(=O)/C=C/c1ccc([N+](=O)[O-])cc1

MIC (Trichophyton rubrum [17]): 0.5 µg/mL (≈ 2.07 µM)
Structure (SMILES): Nc1ccccc1C(=O)/C=C/c1cccc(F)c1

MIC (Candida albicans [13]): 15 µg/mL (≈ 36.3 µM)
MIC (Aspergillus fumigatus [9]): 31.2 µg/mL (≈ 75.6 µM)
Structure (SMILES): O=C(/C=C/c1ccc(Cl)cc1Cl)c1ccc(/N=N/c2c(O)cccc2O)cc1
